This note sets out measurements from PubChem BioAssay AID1259407 (Chemical Carcinogenesis Research Information System (CCRIS), 2018).

Calls of active or inactive are those of the source. The rule behind the calls is not given here.

The test system of the series is CCRIS mutagenicity, Ames/micronucleus/aberration tests. Nature of the series: CCRIS mutagenicity studies.
Setting [1] is: Test System: AMES SALMONELLA TYPHIMURIUM, Strain/Indicator: TA98, Metabolic Activation: NONE, Method: STANDARD PLATE.
[2] abbreviates: Test System: AMES SALMONELLA TYPHIMURIUM, Strain/Indicator: TA98, Metabolic Activation: RAT, LIVER, S-9, AROCLOR 1254, Method: STANDARD PLATE.
Setting [3] is: Test System: AMES SALMONELLA TYPHIMURIUM, Strain/Indicator: TA100, Metabolic Activation: NONE, Method: STANDARD PLATE.
Where [4] appears, read: Test System: AMES SALMONELLA TYPHIMURIUM, Strain/Indicator: TA100, Metabolic Activation: RAT, LIVER, S-9, AROCLOR 1254, Method: STANDARD PLATE.
[5] abbreviates: Test System: AMES SALMONELLA TYPHIMURIUM, Strain/Indicator: TA1535, Metabolic Activation: NONE, Method: STANDARD PLATE.
Setting [6] is: Test System: AMES SALMONELLA TYPHIMURIUM, Strain/Indicator: TA1535, Metabolic Activation: RAT, LIVER, S-9, AROCLOR 1254, Method: STANDARD PLATE.
Where [7] appears, read: Test System: AMES SALMONELLA TYPHIMURIUM, Strain/Indicator: TA1537, Metabolic Activation: NONE, Method: STANDARD PLATE.
Setting [8] is: Test System: AMES SALMONELLA TYPHIMURIUM, Strain/Indicator: TA1537, Metabolic Activation: RAT, LIVER, S-9, AROCLOR 1254, Method: STANDARD PLATE.
[9] abbreviates: Test System: AMES SALMONELLA TYPHIMURIUM, Strain/Indicator: TA98, Metabolic Activation: NONE, Method: PREINCUBATION
Where [10] appears, read: Test System: AMES SALMONELLA TYPHIMURIUM, Strain/Indicator: TA100, Metabolic Activation: NONE, Method: PREINCUBATION

With `C[C@]12CC[C@H](OC(=O)/C=C/c3cccc(N(CCCl)CCCl)c3)CC1=CC[C@@H]1[C@@H]2CC[C@]2(C)NC(=O)CC[C@@H]12`, the mutagenic call under setting [1] was “inactive; negative”; the mutagenic call under setting [2] is “inactive; negative”; the mutagenic call under setting [3] is “inactive; negative”; the mutagenic call under setting [4] was “inactive; negative”; the mutagenic call under setting [5] is “active; positive”; the mutagenic call under setting [6] is “active; positive”. Moreover, the mutagenic call was “inactive; negative” under setting [7] and “inactive; negative” under setting [8].
For the compound `O=C(CBr)c1ccccc1`, the mutagenic call is “inactive; negative” (Test System: AMES SALMONELLA TYPHIMURIUM, Strain/Indicator: TA98, Metabolic Activation: HAMSTER, LIVER, S-9, AROCLOR 1254, Method: STANDARD PLATE); “inactive; negative” under setting [9]; “inactive; negative” under setting [1]; “inactive; negative” under setting [2]; “inactive; negative” (Test System: AMES SALMONELLA TYPHIMURIUM, Strain/Indicator: TA98, Metabolic Activation: RAT, LIVER, S-9, PCB, Method: PREINCUBATION); “inactive; negative” (Test System: AMES SALMONELLA TYPHIMURIUM, Strain/Indicator: TA100, Metabolic Activation: HAMSTER, LIVER, S-9, AROCLOR 1254, Method: STANDARD PLATE). Moreover, the mutagenic call is “inactive; negative” under setting [10]; “inactive; negative” under setting [3]; “inactive; negative” under setting [4]; “inactive; negative” (Test System: AMES SALMONELLA TYPHIMURIUM, Strain/Indicator: TA100, Metabolic Activation: RAT, LIVER, S-9, PCB, Method: PREINCUBATION); “inactive; negative” (Test System: AMES SALMONELLA TYPHIMURIUM, Strain/Indicator: TA1535, Metabolic Activation: HAMSTER, LIVER, S-9, AROCLOR 1254, Method: STANDARD PLATE); “inactive; negative” under setting [5]. In addition, the mutagenic call was “inactive; negative” under setting [6]; “inactive; negative” (Test System: AMES SALMONELLA TYPHIMURIUM, Strain/Indicator: TA1537, Metabolic Activation: HAMSTER, LIVER, S-9, AROCLOR 1254, Method: STANDARD PLATE); “inactive; negative” under setting [7]; “inactive; negative” under setting [8]; “inactive; negative” (Test System: AMES SALMONELLA TYPHIMURIUM, Strain/Indicator: TA1538, Metabolic Activation: HAMSTER, LIVER, S-9, AROCLOR 1254, Method: STANDARD PLATE); “inactive; negative” (Test System: AMES SALMONELLA TYPHIMURIUM, Strain/Indicator: TA1538, Metabolic Activation: NONE, Method: STANDARD PLATE). In addition, the mutagenic call is “inactive; negative” (Test System: AMES SALMONELLA TYPHIMURIUM, Strain/Indicator: TA1538, Metabolic Activation: RAT, LIVER, S-9, AROCLOR 1254, Method: STANDARD PLATE); “inactive; negative” (Test System: E. COLI, Strain/Indicator: WP2 UVRA, Metabolic Activation: NONE, Method: PREINCUBATION); “inactive; negative. reevaluation of results: negative” (Test System: MOUSE LYMPHOMA, Strain/Indicator: L5178Y (TK+/TK-), Metabolic Activation: NONE, Method: SUSPENSION/PLATE); “active; positive. reevaluation of results: inconclusive” (Test System: MOUSE LYMPHOMA, Strain/Indicator: L5178Y (TK+/TK-), Metabolic Activation: RAT, LIVER, S-9, AROCLOR 1254, Method: SUSPENSION/PLATE).
As to `Cc1cccc(OC(=O)N(C)N=O)c1`, for the setting “Test System: E. COLI WP2, Strain/Indicator: WP2, Metabolic Activation: NONE, Method: STANDARD PLATE”, the mutagenic call was “active; positive”.
As to `COc1c2ccccc2[n+]([O-])c2occc12`, the mutagenic call under setting [1] was “inactive; negative” and the mutagenic call (Test System: AMES SALMONELLA TYPHIMURIUM, Strain/Indicator: TA98, Metabolic Activation: RAT LIVER S-9, PHENOBARTITAL, Method: STANDARD PLATE) is “inactive; negative”.
`CS`: the mutagenic call runs as follows: under setting [9], “inactive; negative”; (Test System: AMES SALMONELLA TYPHIMURIUM, Strain/Indicator: TA98, Metabolic Activation: RAT, LIVER, S-9, SODIUM PHENOBARBITAL AND 5,6-BENZOFLAVONE, Method: PREINCUBATION) “inactive; negative”; under setting [10], “inactive; negative”; (Test System: AMES SALMONELLA TYPHIMURIUM, Strain/Indicator: TA100, Metabolic Activation: RAT, LIVER, S-9, SODIUM PHENOBARBITAL AND 5,6-BENZOFLAVONE, Method: PREINCUBATION) “inactive; negative”; (Test System: AMES SALMONELLA TYPHIMURIUM, Strain/Indicator: TA102, Metabolic Activation: NONE, Method: PREINCUBATION) “inactive; negative”; (Test System: AMES SALMONELLA TYPHIMURIUM, Strain/Indicator: TA102, Metabolic Activation: RAT, LIVER, S-9, SODIUM PHENOBARBITAL AND 5,6-BENZOFLAVONE, Method: PREINCUBATION) “inactive; negative”. Also, the mutagenic call (Test System: AMES SALMONELLA TYPHIMURIUM, Strain/Indicator: TA104, Metabolic Activation: NONE, Method: PREINCUBATION) is “inactive; negative”; the mutagenic call (Test System: AMES SALMONELLA TYPHIMURIUM, Strain/Indicator: TA104, Metabolic Activation: RAT, LIVER, S-9, SODIUM PHENOBARBITAL AND 5,6-BENZOFLAVONE, Method: PREINCUBATION) is “inactive; negative”; the mutagenic call (Test System: AMES SALMONELLA TYPHIMURIUM, Strain/Indicator: TA1535, Metabolic Activation: NONE, Method: PREINCUBATION) was “inactive; negative”; the mutagenic call (Test System: AMES SALMONELLA TYPHIMURIUM, Strain/Indicator: TA1535, Metabolic Activation: RAT, LIVER, S-9, SODIUM PHENOBARBITAL AND 5,6-BENZOFLAVONE, Method: PREINCUBATION) is “inactive; negative”; the mutagenic call (Test System: AMES SALMONELLA TYPHIMURIUM, Strain/Indicator: TA1537, Metabolic Activation: NONE, Method: PREINCUBATION) is “inactive; negative”; the mutagenic call (Test System: AMES SALMONELLA TYPHIMURIUM, Strain/Indicator: TA1537, Metabolic Activation: RAT, LIVER, S-9, SODIUM PHENOBARBITAL AND 5,6-BENZOFLAVONE, Method: PREINCUBATION) is “inactive; negative”. Further, the mutagenic call reads like this: (Test System: E. COLI, Strain/Indicator: WP2UVRA/PKM101, Metabolic Activation: NONE, Method: PREINCUBATION) “inactive; negative”; (Test System: E. COLI, Strain/Indicator: WP2UVRA/PKM101, Metabolic Activation: RAT, LIVER, S-9, SODIUM PHENOBARBITAL AND 5,6-BENZOFLAVONE, Method: PREINCUBATION) “inactive; negative”; (Test System: E. COLI, Strain/Indicator: WP2UVRA, Metabolic Activation: NONE, Method: PREINCUBATION) “inactive; negative”; (Test System: E. COLI, Strain/Indicator: WP2UVRA, Metabolic Activation: RAT, LIVER, S-9, SODIUM PHENOBARBITAL AND 5,6-BENZOFLAVONE, Method: PREINCUBATION) “inactive; negative”.
